Experimental data: US8138168B1 (Takeda Pharmaceutical Company Limited, priority 2007, dated 2012)

Biological target: T1, Recombinant human renin (Homo sapiens, UniProt P00797)
T1 construct: isolate the active form (residues 67-406); made in house; host or cells: FreeStyle 293-F cells (transient expression of pcDNA3.1(+)/hREN)
T1 sequence (P00797 67-406): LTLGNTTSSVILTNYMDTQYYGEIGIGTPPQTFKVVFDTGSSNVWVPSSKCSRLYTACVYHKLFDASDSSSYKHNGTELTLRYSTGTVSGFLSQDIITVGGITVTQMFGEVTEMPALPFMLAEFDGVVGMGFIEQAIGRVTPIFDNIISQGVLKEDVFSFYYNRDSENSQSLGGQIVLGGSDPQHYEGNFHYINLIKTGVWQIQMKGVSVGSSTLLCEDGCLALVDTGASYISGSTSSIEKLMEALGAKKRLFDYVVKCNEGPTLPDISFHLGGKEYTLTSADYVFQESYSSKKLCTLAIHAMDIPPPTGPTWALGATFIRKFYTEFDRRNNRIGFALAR
Experiment: In vitro enzymatic activity assay of renin inhibitors (fluorogenic peptide substrate)
Type: biochemical
Conditions: read-out: IC50 of Exemplified Compounds Against Renin
How it was run: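 Recombinant human renin (3 nM final) pre-incubated 10 min at 37 °C with compounds in pH 7.4 Hepes/EDTA/DTT/0.1 mg/mL BSA/Brij35 buffer (optionally plus 2% BSA), 5% DMSO final; fluorogenic QXL520/HiLyteFluo488 peptide substrate added.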

SMILES	IC50 [nM]
COCCCn1c(C(C)(C)C)cnc1C1(O)CCCN(C(=O)C[C@H](N)Cc2ccc(-c3ccc(C(=O)OC)cc3)cc2)C1 (stereo partly drawn) [Compound 242, methyl 4′-((2R)-2-amino-4-(3-(5-tert-butyl-1-(3-methoxypropyl)-1H-imidazol-2-yl)-3-hydroxypiperidin-1-yl)-4-oxobutyl)biphenyl-4-carboxylate]	> 1000
COCCCn1c([C@@H]2CCCN(C(=O)[C@@H]3CN(C(=O)c4ccccc4C(=O)OC)C[C@H]3N)C2)nc2ccccc21 [Compound 424, methyl 2-((3S,4R)-3-amino-4-((R)-3-(1-(3-methoxypropyl)-1H-benzo[d]imidazol-2-yl)piperidine-1-carbonyl)pyrrolidine-1-carbonyl)benzoate]	> 1000
COCCCn1c([C@@H]2CCCN(C(=O)[C@@H]3CN(S(=O)(=O)c4ccc(N5CCCC5=O)cc4)C[C@H]3N)C2)nc2ccccc21 [Compound 382, 1-(4-((3S,4R)-3-amino-4-((R)-3-(1-(3-methoxypropyl)-1H-benzo[d]imidazol-2-yl)piperidine-1-carbonyl)pyrrolidin-1-ylsulfonyl)phenyl)pyrrolidin-2-one]	100 to 1000
COc1cccc([C@@H](N)CC(=O)N2CCCC(c3nc4ccccc4[nH]3)C2)c1OC (stereo partly drawn) [Compound 28, (3S)-1-(3-(1H-benzo[d]imidazol-2-yl)piperidin-1-yl)-3-amino-3-(2,3-dimethoxyphenyl)propan-1-one]	> 1000
COCCCn1c([C@@H]2CCCN(C(=O)C[C@H](N)Cc3ccc(-c4ccc(N(C)C)nc4)cc3)C2)nc2ccccc21 [Compound 147, (R)-3-amino-4-(4-(6-(dimethylamino)pyridin-3-yl)phenyl)-1-((R)-3-(1-(3-methoxypropyl)-1H-benzo[d]imidazol-2-yl)piperidin-1-yl)butan-1-one]	< 100
COCCCn1c([C@@H]2CCCN(C(=O)C[C@H](N)c3cccnc3)C2)nc2ccccc21 [Compound 119, (S)-3-amino-1((R)-3-(1-(3-methoxypropyl)-1H-benzo[d]imidazol-2-yl)piperidin-1-yl)-3-(pyridin-3-yl)propan-1-one]	100 to 1000
COCCCn1c([C@@H]2CCCN(C(=O)C[C@H](N)CNC(=O)CC3CCCCC3)C2)nc2ccccc21 [Compound 319, N-((S)-2-amino-4-((R)-3-(1-(3-methoxypropyl)-1H-benzo[d]imidazol-2-yl)piperidin-1-yl)-4-oxobutyl)-2-cyclohexylacetamide]	100 to 1000
COCCCn1c([C@@H]2CCCN(C(=O)CC(CN)c3ccc(Cl)cc3)C2)nc2ccccc21 (stereo partly drawn) [Compound 93, 4-amino-3-(4-chlorophenyl)-1-((R)-3-(1-(3-methoxypropyl)-1H-benzo[d]imidazol-2-yl)piperidin-1-yl)butan-1-one]	> 1000
COCCCn1c([C@@H]2CCCN(C(=O)C[C@H](N)Cc3ccc4ccccc4c3)C2)nc2ccc(Cl)cc21 [Compound 99, (R)-3-amino-1-((R)-3-(6-chloro-1-(3-methoxypropyl)-1H-benzo[d]imidazol-2-yl)piperidin-1-yl)-4-(naphthalen-2-yl)butan-1-one]	100 to 1000
COCCCn1c([C@@H]2CCCN(C(=O)[C@@H]3CN(C(=O)c4cc5ccccc5o4)C[C@H]3N)C2)nc2ccccc21 [Compound 406, ((3R,4S)-4-amino-1-(benzofuran-2-carbonyl)pyrrolidin-3-yl)((R)-3-(1-(3-methoxypropyl)-1H-benzo[d]imidazol-2-yl)piperidin-1-yl)methanone]	> 1000
COCCCn1c([C@@H]2CCCN(C(=O)C[C@H](N)CNC(=O)c3cccc(F)c3)C2)nc2ccccc21 [Compound 318, N-((S)-2-amino-4-((R)-3-(1-(3-methoxypropyl)-1H-benzo[d]imidazol-2-yl)piperidin-1-yl)-4-oxobutyl)-3-fluorobenzamide]	100 to 1000
O=C(Nc1ccc(Cl)c(C(F)(F)F)c1)N1CCCC(c2nc3ccccc3[nH]2)C1 (stereo not shown) [Compound 7, 3-(1H-benzo[d]imidazol-2-yl)-N-(4-chloro-3-(trifluoromethyl)phenyl)piperidine-1-carboxamide]	> 1000

Results, then the compound that gave them:

IC50 [nM]	SMILES
100 to 1000	COCCCn1c([C@@H]2CCCN(C(=O)[C@@H]3CN(S(=O)(=O)c4ccc(Cl)cc4)C[C@H]3N)C2)nc2ccccc21 [Compound 370, ((3R,4S)-4-amino-1-(4-chlorophenylsulfonyl)pyrrolidin-3-yl)((R)-3-(1-(3-methoxypropyl)-1H-benzo[d]imidazol-2-yl)piperidin-1-yl)methanone]
100 to 1000	CC(=O)NCCn1c([C@@H]2CCCN(C(=O)C[C@H](N)Cc3ccc(-c4ccc5c(c4)OC(F)(F)O5)cc3)C2)nc2c(C)cccc21 [Compound 474, N-(2-(2-((R)-1-((R)-3-amino-4-(4-(2,2-difluorobenzo[d][1,3]dioxol-5-yl)phenyl)butanoyl)piperidin-3-yl)-4-methyl-1H-benzo[d]imidazol-1-yl)ethyl)acetamide]
100 to 1000	COCCCn1c([C@@H]2CCCN(C(=O)[C@@H]3CN(S(=O)(=O)c4ccc(OC)c(OC)c4)C[C@H]3N)C2)nc2ccccc21 [Compound 372, ((3R,4S)-4-amino-1-(3,4-dimethoxyphenylsulfonyl)pyrrolidin-3-yl)((R)-3-(1-(3-methoxypropyl)-1H-benzo[d]imidazol-2-yl)piperidin-1-yl)methanone]
100 to 1000	CC(=O)NCCn1c([C@@H]2CCCN(C(=O)C[C@H](N)Cc3ccc(-c4cnc(N)nc4)cc3)C2)nc2c(C)cccc21 [Compound 472, N-(2-(2-((R)-1-((R)-3-amino-4-(4-(2-aminopyrimidin-5-yl)phenyl)butanoyl)piperidin-3-yl)-4-methyl-1H-benzo[d]imidazol-1-yl)ethyl)acetamide]
< 100	COCCCn1c([C@@H]2CCCN(C(=O)C[C@H](N)Cc3ccc(-c4cn(C)c(=O)n(C)c4=O)cc3)C2)nc2ccccc21 [Compound 205, 5-(4-((R)-2-amino-4-((R)-3-(1-(3-methoxypropyl)-1H-benzo[d]imidazol-2-yl)piperidin-1-yl)-4-oxobutyl)phenyl)-1,3-dimethylpyrimidine-2,4(1H,3H)-dione]
> 1000	N[C@@H](CC(=O)N1CCCC(c2nc3ccccc3[nH]2)C1)c1cccc([N+](=O)[O-])c1 (stereo partly drawn) [Compound 40, (3S)-1-(3-(1H-benzo[d]imidazol-2-yl)piperidin-1-yl)-3-amino-3-(3-nitrophenyl)propan-1-one]
100 to 1000	COCCCn1c(C2CCCN(C(=O)C[C@H](N)Cc3ccc4ccccc4c3)C2)nc2ccc(C(=O)OC)cc21 (stereo partly drawn) [Compound 111, methyl 2-(1-((R)-3-amino-4-(naphthalen-2-yl)butanoyl)piperidin-3-yl)-1-(3-methoxypropyl)-1H-benzo[d]imidazole-6-carboxylate]
> 1000	COCCCn1c(C2CCCN(C(=O)CC(N)Cc3ccc4ccccc4c3)C2)nc2ccc(=O)[nH]c21 [Compound 101, (R)-2-(1-(3-amino-4-(naphthalen-2-yl)butanoyl)piperidin-3-yl)-3-(3-methoxypropyl)-3H-imidazo[4,5-b]pyridin-5(4H)-one]
< 100	COCCCn1c([C@@H]2CCCN(C(=O)C[C@H](N)Cc3ccc(-c4ccc5oc(=O)[nH]c5c4)cc3)C2)nc2c(F)cccc21 [Compound 460, 5-(4-((R)-2-amino-4-((R)-3-(4-fluoro-1-(3-methoxypropyl)-1H-benzo[d]imidazol-2-yl)piperidin-1-yl)-4-oxobutyl)phenyl)benzo[d]oxazol-2(3H)-one]
> 1000	COCCCn1c(C2CCCN(C(=O)C[C@@H](N)Cc3ccc(Cl)cc3)C2)nc2ccccc21 (stereo partly drawn) [Compound 67, (3S)-3-amino-4-(4-chlorophenyl)-1-(3-(1-(3-methoxypropyl)-1H-benzo[d]imidazol-2-yl)piperidin-1-yl)butan-1-one]
> 1000	N[C@H](C(=O)N1CCCC(c2nc3ccccc3[nH]2)C1)C1CCCCC1 (stereo partly drawn) [Compound 61, (2S)-1-(3-(1H-benzo[d]imidazol-2-yl)piperidin-1-yl)-2-amino-2-cyclohexylethanone]
100 to 1000	COCCCn1c([C@@H]2CCCN(C(=O)C[C@H](N)CNS(=O)(=O)C(C)C)C2)nc2ccccc21 [Compound 312, N-((S)-2-amino-4-((R)-3-(1-(3-methoxypropyl)-1H-benzo[d]imidazol-2-yl)piperidin-1-yl)-4-oxobutyl)propane-2-sulfonamide]
100 to 1000	COCCCn1c([C@@H]2CCCN(C(=O)C[C@H](N)CNS(=O)(=O)c3cccc(Cl)c3)C2)nc2ccccc21 [Compound 300, N-((S)-2-amino-4-((R)-3-(1-(3-methoxypropyl)-1H-benzo[d]imidazol-2-yl)piperidin-1-yl)-4-oxobutyl)-3-chlorobenzenesulfonamide]
< 100	COCCCn1c([C@@H]2CCCN(C(=O)C[C@H](N)Cc3ccc4ccccc4c3)C2)nc2ccccc21 [Compound 74, (R)-3-amino-1((R)-3-(1-(3-methoxypropyl)-1H-benzo[d]imidazol-2-yl)piperidin-1-yl)-4-(naphthalen-2-yl)butan-1-one]
> 1000	COCCCn1c([C@@H]2CCCN(C(=O)C[C@H](N)CNC(=O)C3CCCCC3)C2)nc2ccccc21 [Compound 326, N-((S)-2-amino-4-((R)-3-(1-(3-methoxypropyl)-1H-benzo[d]imidazol-2-yl)piperidin-1-yl)-4-oxobutyl)cyclohexanecarboxamide]
< 100	COCCCn1c([C@@H]2CCCN(C(=O)C[C@H](N)Cc3ccc(-c4cnccc4OC)cc3)C2)nc2ccccc21 [Compound 162, (R)-3-Amino-1-((R)-3-(1-(3-methoxypropyl)-1H-benzo[d]imidazol-2-yl)piperidin-1-yl)-4-(4-(4-methoxypyridin-3-yl)phenyl)butan-1-one]
